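Briefly, cells in 96-well plates were exposed to five compound concentrations for 48 h, and endpoints were estimated by linear interpolation. GI50 = concentration required for 50% inhibition of growth.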 Calls of active or inactive are those of the source. Cut-off read from the data, not from the text of the source: active = GI50 up to about 1.1 µM and inactive = higher.
Legend:
Assay in all cases: growth of human tumour cells (NCI), 48 h
786-0 = test system: 786-0
A549 = test system: A549
BT-549 = test system: BT-549
CAKI-1 = test system: CAKI-1
CCRF-CEM = test system: CCRF-CEM
COLO 205 = test system: COLO 205
DU-145 = test system: DU-145
HCC 2998 = test system: HCC 2998
HCT-116 = test system: HCT-116
HCT-15 = test system: HCT-15
HL-60 = test system: HL-60
HOP-62 = test system: HOP-62
HT-29 = test system: HT-29
K562 = test system: K562
KM12 = test system: KM12
M14 = test system: M14
MCF7 = test system: MCF7
MDA-MB-231 = test system: MDA-MB-231
MDA-MB-435 = test system: MDA-MB-435
MDA-N = test system: MDA-N
MOLT-4 = test system: MOLT-4
Malme-3M = test system: Malme-3M
NCI-H23 = test system: NCI-H23
NCI-H460 = test system: NCI-H460
NCI/ADR-RES = test system: NCI/ADR-RES
OVCAR-3 = test system: OVCAR-3
OVCAR-4 = test system: OVCAR-4
OVCAR-5 = test system: OVCAR-5
OVCAR-8 = test system: OVCAR-8
PC-3 = test system: PC-3
RPMI-8226 = test system: RPMI-8226
RXF 393 = test system: RXF 393
SF-268 = test system: SF-268
SF-295 = test system: SF-295
SK-MEL-2 = test system: SK-MEL-2
SK-MEL-5 = test system: SK-MEL-5
SN12C = test system: SN12C
SNB-19 = test system: SNB-19
SR = test system: SR
TK-10 = test system: TK-10
U-251 = test system: U-251
UACC-257 = test system: UACC-257
UO-31 = test system: UO-31
A498 = test system: A498
ACHN = test system: ACHN
EKVX = test system: EKVX
LOX IMVI = test system: LOX IMVI
NCI-H226 = test system: NCI-H226
SF-539 = test system: SF-539
SK-MEL-28 = test system: SK-MEL-28
SK-OV-3 = test system: SK-OV-3
SNB-75 = test system: SNB-75
SW-620 = test system: SW-620
T47D = test system: T47D
UACC-62 = test system: UACC-62
HOP-92 = test system: HOP-92
IGROV-1 = test system: IGROV-1
NCI-H522 = test system: NCI-H522

Measured: GI50

NNC(=O)c1nn[nH]c1C(=O)NN
> 100 µM: HCT-15
inactive: 786-0 15.5 µM | A549 > 100 µM | BT-549 13.6 µM | CAKI-1 15.8 µM | CCRF-CEM > 100 µM | COLO 205 > 100 µM | DU-145 > 100 µM | HCC 2998 > 100 µM | HCT-116 > 100 µM | HL-60 > 100 µM | HOP-62 > 100 µM | HT-29 13.5 µM | K562 > 100 µM | KM12 > 100 µM | M14 > 100 µM | MCF7 > 100 µM | MDA-MB-231 > 100 µM | MDA-MB-435 > 100 µM | MDA-N > 100 µM | MOLT-4 > 100 µM | Malme-3M 15.1 µM | NCI-H23 > 100 µM | NCI-H460 > 100 µM | NCI/ADR-RES > 100 µM | OVCAR-3 > 100 µM | OVCAR-4 > 10 µM | OVCAR-5 > 100 µM | OVCAR-8 > 100 µM | PC-3 > 100 µM | RPMI-8226 > 100 µM | RXF 393 > 100 µM | SF-268 > 100 µM | SF-295 > 100 µM | SK-MEL-2 > 100 µM | SK-MEL-5 > 100 µM | SN12C > 100 µM | SNB-19 > 100 µM | SR > 100 µM | TK-10 > 100 µM | U-251 > 100 µM | UACC-257 > 100 µM | UO-31 19 µM

CC(C)OC(=O)[C@@H](O)[C@H](CO)C1=CC([Si](C)(C)c2ccccc2)=CON1
inactive: 786-0 > 100 µM | A498 > 100 µM | A549 > 100 µM | ACHN > 100 µM | BT-549 > 100 µM | CAKI-1 > 100 µM | COLO 205 > 100 µM | DU-145 > 100 µM | EKVX > 100 µM | HCC 2998 > 100 µM | HCT-116 > 100 µM | HOP-62 > 100 µM | HT-29 > 100 µM | K562 > 100 µM | KM12 > 100 µM | LOX IMVI > 100 µM | M14 > 100 µM | MCF7 > 100 µM | MDA-MB-231 > 100 µM | MDA-MB-435 > 100 µM | MOLT-4 > 100 µM | NCI-H226 > 100 µM | NCI-H23 > 100 µM | NCI-H460 > 100 µM | NCI/ADR-RES > 100 µM | OVCAR-3 > 100 µM | OVCAR-4 > 100 µM | OVCAR-5 > 100 µM | OVCAR-8 > 100 µM | PC-3 > 100 µM | RPMI-8226 > 100 µM | RXF 393 > 100 µM | SF-268 > 100 µM | SF-295 > 100 µM | SF-539 > 100 µM | SK-MEL-28 > 100 µM | SK-MEL-2 > 100 µM | SK-MEL-5 > 100 µM | SK-OV-3 > 100 µM | SNB-19 > 100 µM | SNB-75 1.26 µM | SR > 100 µM | SW-620 > 100 µM | T47D > 100 µM | TK-10 > 100 µM | U-251 > 100 µM | UACC-257 > 100 µM | UACC-62 > 100 µM | UO-31 > 100 µM
> 100 µM: HCT-15

O=c1sc2c(s1)SSSSS2
> 50 µM: HCT-15
inactive: 786-0 > 50 µM | A498 > 50 µM | A549 > 50 µM | ACHN > 50 µM | BT-549 > 50 µM | CAKI-1 > 50 µM | CCRF-CEM 9.18 µM | COLO 205 > 50 µM | DU-145 > 50 µM | EKVX > 50 µM | HCC 2998 > 50 µM | HCT-116 > 50 µM | HOP-62 > 50 µM | HOP-92 > 50 µM | HT-29 21.1 µM | IGROV-1 > 50 µM | K562 31.8 µM | KM12 > 50 µM | LOX IMVI 30.5 µM | M14 > 50 µM | MCF7 31.1 µM | MDA-MB-231 > 50 µM | MDA-MB-435 > 50 µM | MDA-N > 50 µM | MOLT-4 11.8 µM | Malme-3M > 50 µM | NCI-H226 > 50 µM | NCI-H23 > 50 µM | NCI-H460 21.4 µM | NCI-H522 34.2 µM | NCI/ADR-RES > 50 µM | OVCAR-3 41.9 µM | OVCAR-4 > 50 µM | OVCAR-5 > 50 µM | OVCAR-8 > 50 µM | PC-3 > 50 µM | RPMI-8226 > 50 µM | RXF 393 > 50 µM | SF-268 28.6 µM | SF-295 > 50 µM | SF-539 20.2 µM | SK-MEL-28 > 50 µM | SK-MEL-2 > 50 µM | SK-MEL-5 > 50 µM | SK-OV-3 > 50 µM | SN12C > 50 µM | SNB-19 > 50 µM | SR > 50 µM | SW-620 > 50 µM | T47D > 50 µM | TK-10 > 50 µM | U-251 > 50 µM | UACC-257 28.6 µM | UACC-62 35.2 µM | UO-31 > 50 µM

From ChEMBL document CHEMBL1201862, “PubChem BioAssay data set” (2004)
